How the values were obtained:
[1] = Measured pKa of cationic lipids in LNP or micellar formulations by TNS fluorescence; type: physicochemical; settings: measured in the Formulation milieu, TNS fluorescence, 1 mM total lipids
Protocol: pKa of cationic lipids in LNP or micellar Formulations were measured by the procedure of Jayaraman, 2012, Angew. Chem. Int. Ed., 51:8529-33, hereby incorporated by reference. Lipid micelles or LNPs are diluted to 1 mM total lipids in universal buffer with a pH range between 3 and 12 in presence of 0.06 mg/mL 6-(p-toluidino)-2-naphthalenesulfonic acid sodium salt (TNS) reagent (Sigma Aldrich), a pH sensitive fluorescence probe. The anionic TNS molecule fluoresces when associated with the surface of positively charged membranes but is not fluorescent when free in solution, allowing measurement of pKa. The TNS signal is measured on a spectral plate reader. The TNS signal is plotted as function of the pH and analyzed using a non-linear (Boltzman) to determine the pKa.
Reagents used in the assay include • Hepes free acid, CAS: 7365-45-9 (VWR, 0511-1KG or equivalent) • MES, HPLC grade: (Sigma 105228-100G or equivalent) • Ammonium acetate, HPLC grade: (Sigma 90335-100 mL or equivalent) • Sodium chloride, HPLC grade (VWR EM-MX0475-1 or equivalent) • TNS (Sigma-Aldrich T9792-250 mg or equivalent) • Hydrochloric acid • DMSO • DPBS without calcium and magnesium (GE, SH30028.02 or equivalent) • H2O, HPLC grade (OmniSolv, WX0004-1 or equivalent)
To prepare a stock solution of Universal Buffer (UB) in a polystyrene sterile storage bottle, prepare 1 L using the following table.
Reagents are sterile filtered through a 0.2 μm filter. Preparation of UB solution includes adding 5 mL of 1 M HCl to a 350 mL stock solution.
To prepare a pH ladder, centrifuge tubes (50 mL) with 20 mL UB buffer are used. (pH ˜3) and differing amounts of 2 N NaOH. Stock solutions of TNS at 1 mg/mL in DMSO. 60 μL of TNS at 1 mg/mL is added to 940 μL water to reach a working solution concentration of 0.06 mg/mL. Five test samples, 1 mL of LNP sample in PBS at 1 mM total lipid, and 1 reference sample are analyzed per plate. Samples at different pH values are prepared in wells in which 25 μL of 0.06 mg/mL TNS is added. 15 μL of test samples is added per well. The microplate is incubated for 15 minutes at room temperature in the dark. TNS template can be used to format data from the plate reader. Perform non-linear (Boltzman) regression analysis of the samples in Origin Pro 8 or equivalent software.

Factor VII = assay: In vivo mouse Factor VII siRNA knockdown with lipid nanoparticles; set-up: species or system C57BL/6 mice; settings: intravenous, mice, 48 hours
Excerpt: The first pair of numbers denotes the number of carbons in the ester, including the carbonyl, for L1 and L2; the pair of numbers in the parenthesis denotes the number of carbons in each branch of the branched alkyl, R1 or if R2 is also branched, R1/R2 (an asterisk denotes a double bond); the number of carbons in R3 is given; and the last line denotes the substitution for R4 and R5. The ATX number is given for reference herein. Calculated Log D values (c-Log D) and calculated pKa (c-pKa) values are given, as well as measured pKa in parenthesis (measured in the Formulation milieu). The c-Log D and c-pKa values are generated by ACD Labs Structure Designer v12.0. Bioactivity is percentage in vivo Factor VII knockdown at a dose of 0.03 mg/kg, unless otherwise designated.
Using a liver-directed in vivo screen of the liposome libraries, a series of compounds were tested that facilitate high levels of siRNA mediated gene silencing in hepatocytes, the cells comprising the liver parenchyma. Factor VII, a blood-clotting factor, is a suitable target gene for assaying functional siRNA delivery to liver. Because this factor is produced specifically in hepatocytes, gene silencing indicates successful delivery to parenchyma, as opposed to delivery to the cells of the reticulo-endothelial system (e.g., Kupffer cells). Furthermore, Factor VII is a secreted protein that can be readily measured in serum, obviating the need to euthanize animals. Silencing at the mRNA level can be readily determined by measuring levels of protein. This is because the protein's short half-life (2-5 hour). Compositions with siRNA directed to […] were Formulated with the lipid, and comparator sample phosphate-buffered saline (PBS). Female C57BL/6 mice (6-8 week old) were used for FVII siRNA knockdown (KD) experiments.
All Formulations were administered intravenously via tail vein injection at a dose of 0.03 and 0.1 mg/kg at a dosing volume of […]. Terminal blood collection was performed via cardiac puncture under 2% isoflurane at 48 hours after Formulation injections. Blood was collected into 0.109 M citrate buffer tube and processed by centrifugation at 1200 G for 10 min. Plasma was collected and Factor VII protein levels were analyzed by chromogenic assay (Biophen FVII, Aniara Corporation). A standard curve was constructed using samples from PBS-injected mice and relative Factor VII expression was determined by comparing treated groups to untreated PBS control.

## CCCCCC(CCCCC)OC(=O)CN(CC(=O)OC(CCCCC)CCCCC)C(=O)SCCCN(CC)CC
[1]
  pKa: 6.21

## CCCCCC/C=C\COC(=O)CN(CC(=O)OC(CCCCCCC)CCCCCCC)C(=O)SCCCN(C)C
[1]
  pKa: 6.44
Factor VII; dose 0.03 mg/kg
  Bioactivity: percentage in vivo Factor VII knockdown: 62 percentage

## CCCCCCCC(CCCCCCC)OC(=O)CN(CC(=O)OC(CCCCCCC)CCCCCCC)C(=O)SCCCN(C)C
[1]
  pKa: 5.68
Factor VII; dose 0.03 mg/kg
  Bioactivity: percentage in vivo Factor VII knockdown: 25 percentage

## CCCCCC/C=C\COC(=O)CN(CC(=O)OC(CCCCCCCC)CCCCCCCC)C(=O)SCCCN(C)C
[1]
  pKa: 6.38
Factor VII; dose 0.03 mg/kg
  Bioactivity: percentage in vivo Factor VII knockdown: 97 percentage

## CCCCCC/C=C\COC(=O)CN(CC(=O)OC(CCCCCCCC)CCCCCCCC)C(=O)SCCCN(CC)CC
[1]
  pKa: 6.2
Factor VII; dose 0.03 mg/kg
  Bioactivity: percentage in vivo Factor VII knockdown: 82 percentage

## CCCCCC/C=C\COC(=O)CN(CC(=O)OC(CCCCCCCC)CCCCCCCC)C(=O)SCCCCN(C)C
[1]
  pKa: 6.69
Factor VII; dose 0.03 mg/kg
  Bioactivity: percentage in vivo Factor VII knockdown: 90 percentage

## CCCCCC/C=C\COC(=O)CN(CC(=O)OC(CCCCCCCC)CCCCCCCC)C(=O)SCCCCN(CC)CC
[1]
  pKa: 6.9
Factor VII; dose 0.03 mg/kg
  Bioactivity: percentage in vivo Factor VII knockdown: 97 percentage

## CCCCCC/C=C\COC(=O)CCCN(CC(=O)OC(CCCCCCC)CCCCCCC)C(=O)SCCN(C)C
[1]
  pKa: 5.83
Factor VII; dose 0.03 mg/kg
  Bioactivity: percentage in vivo Factor VII knockdown: 40 percentage

## CCCCCC/C=C\COC(=O)CCCN(CC(=O)OC(CCCCCCC)CCCCCCC)C(=O)SCCCN(C)C
[1]
  pKa: 6.85
Factor VII; dose 0.03 mg/kg
  Bioactivity: percentage in vivo Factor VII knockdown: 53 percentage

## CCCCCC/C=C\COC(=O)CCCN(CC(=O)OC(CCCCCCC)CCCCCCC)C(=O)SCCCN(CC)CC
[1]
  pKa: 6.53
Factor VII; dose 0.03 mg/kg
  Bioactivity: percentage in vivo Factor VII knockdown: 70 percentage

## CCC/C=C/CCC(CC/C=C/CCC)OC(=O)CCCN(CCCC(=O)OC/C=C\CCCCCC)C(=O)SCCN(C)C
[1]
  pKa: 6
Factor VII; dose 0.03 mg/kg
  Bioactivity: percentage in vivo Factor VII knockdown: 72 percentage

## CCCCCC/C=C\COC(=O)CCCN(CCCC(=O)OC(CCCCCCC)CCCCCCC)C(=O)SCCCN(CC)CC
[1]
  pKa: 6.66
Factor VII; dose 0.03 mg/kg
  Bioactivity: percentage in vivo Factor VII knockdown: 96 percentage

## CCCCCC/C=C\COC(=O)CCCN(CCCC(=O)OC(CCCCCCC)CCCCCCCC)C(=O)SCCCN(CC)CC (centres unmarked)
[1]
  pKa: 6.65
Factor VII; dose 0.03 mg/kg
  Bioactivity: percentage in vivo Factor VII knockdown: 93 percentage

## CCCCCC/C=C\COC(=O)CCCN(CCCC(=O)OC(CCCCCCCC)CCCCCCCC)C(=O)SCCCN(CC)CC
[1]
  pKa: 6.58
Factor VII; dose 0.03 mg/kg
  Bioactivity: percentage in vivo Factor VII knockdown: 75 percentage

## CCCCCC(CCCCC)OC(=O)CCCN(CCCC(=O)OC(CCCCC)CCCCC)C(=O)SCCCN(C)C
[1]
  pKa: 6.8
Factor VII; dose 0.1 mg/kg
  Bioactivity: percentage in vivo Factor VII knockdown: 14 (0.1 mg/ kg) percentage

## CCCCCC(CCCCC)OC(=O)CCCN(CCCC(=O)OC(CCCCC)CCCCC)C(=O)SCCCN(CC)CC
[1]
  pKa: 5.56
Factor VII; dose 0.1 mg/kg
  Bioactivity: percentage in vivo Factor VII knockdown: 27 (0.1 mg/ kg) percentage

## CCCCCCCC(CCCCCCC)OC(=O)CCCN(CCCC(=O)OC(CCCCCCC)CCCCCCC)C(=O)SCCCN(C)C
[1]
  pKa: 6.38
Factor VII; dose 0.03 mg/kg
  Bioactivity: percentage in vivo Factor VII knockdown: 99 percentage

## CCCCCCCC(CCCCCCC)OC(=O)CCCN(CCCC(=O)OC(CCCCCCC)CCCCCCC)C(=O)SCCCN(CC)CC
[1]
  pKa: 6.31
Factor VII; dose 0.03 mg/kg
  Bioactivity: percentage in vivo Factor VII knockdown: 97 percentage
